From paper PMC6895912 (Cancers, 2019)
“Also recorded” adds a separate entry of the source.

Key:
[1] = test system: CWR-R1, CWR-R1 (10E), CWR-R1-MTX20nM cells; test: Colony formation (clonogenicity) assay; assay type: cell-based, human; conditions: parental CWR-R1 and drug-resistant counterparts, 14 days
From the text: (A) Comparative GI50 values of Gal, NGGAs, and enzalutamide (ENZ) in drug-naïve-/-resistant prostate cancer cells. (B) Gal and NGGAs induce G1 cell cycle arrest in LNCaP cells. (C) VNPP414 and VNPP433-3β deplete the cell cycle regulator, cyclin D1, and upregulate p21; “+” indicates specific treatments. (D) Gal cause dose-dependent depletion of cyclin D1. (E) Unlike ENZ, Gal and VNPP433-3β inhibit colony formation of drug-naïve/-resistant cells in vitro. 1000 cells/well (CWR-R1, CWR-R1 (10E), CWR-R1-MTX20nM), seeded in 6-well plates were treated with indicated concentrations of compounds for a period of 14 days. Media containing compounds were replaced every 3 days. Colonies were stained with 0.05% crystal violet. (F) Quantification of colony formation units (CFU) in drug-naive/resistant cells. Colony assays were repeated three times and colonies counted in four quadrants of the wells. Results are represented as averages with S.E.M. (* p < 0.05, ** p < 0.001). Note: the numbers in parentheses in Figure 2B,C,E are concentrations of the agents in µM.
0.1 × 10^3 cells per well were seeded in 6-well plates and allowed to attach overnight (16 h), cells were treated with compounds in regular media (RPMI with 10% FBS) at the indicated concentrations and replaced every 3rd day for 14 days or until visible colonies could be counted. Colonies were washed and stained with 0.05% crystal violet for 30 min. Colonies were scanned and quantified (colonies counted in four quadrants of each well) with ImageJ colony counter. Results are represented as the mean of triplicates.

CWR22Rv1 xenografts = test: Antitumor efficacy in castration-resistant CWR22Rv1 xenograft model; assay type: in vivo, male NOD SCID mice; conditions: 25 mg/kg PO once daily, 16 days; listed as ENZ
Procedure: Following the in vitro studies and determination of the PK parameters, we then investigated the relative efficacy. Gal and the NGGAs in vivo using difficult-to-treat castration-resistant CWR22Rv1 xenografts. Given the enhanced IP and PO PK parameters of VNPP414 and VNPP433-3β over Gal, we decided to use lower doses of the new analogs compared to the previous Gal doses (200 mg/kg, IP/PO). Gal (200 mg/kg) served as positive control, while ENZ (25 mg/kg) administered PO was used as negative control. Male NOD SCID mice bearing CWR22Rv1 tumors were treated with vehicle, ENZ, Gal, VNPP414, and VNPP433-3β for 16 days as described in the Methods and Materials Section. […] In contrast, Gal and the NGGAs caused statistically significant tumor growth inhibition (TGI). […] It is notable that VNPP433-3β (at 7.5- and 15-fold lower molar doses) and VNPP414 (at 4-fold lower molar dose) are more efficacious than Gal. In general, no host toxicities were observed, as monitored by changes in animal body weight (Figure 7C).
Figure 7 Effects of Gal, NGGAs and ENZ in an in vivo castration-resistant prostate cancer model. (A) Mice bearing CWR22Rv1 xenografts (5 mice per group) were treated with vehicle, Gal (100 mg/kg/twice daily), VNPP414 (60 mg/kg, once daily), VNPP433-3β (15 or 30 mg/kg, once daily) and ENZ (25 mg.kg, once daily) 5 days per week for 16 days. Tumor volumes were measured twice a week and the tumors were collected. Tumor growth inhibition (TGI) values are indicated at the right of each growth curve, and the error bars are the SEM. Results are represented as means ± SEM. ^# p = ns (not significant vs. vehicle), ^$ p < 0.0272 vs. vehicle, * p < 0.0035 vs. vehicle, ** p < 0.0025 vs. vehicle and *** p < 0.0008 vs. vehicle. (B) Photographed tumors from each group. (C) Mean body weights of mice determined during the study. (D) Western blot analyses of tumor samples from each experimental group at day 16. […] It is left out because vehicle is a control, not a substance.
Male NOD SCID mice 5–6 weeks of age were obtained from University of Maryland School of Medicine Veterinary Resources (Baltimore, MD, USA. Mice were housed under complete aseptic conditions, fed autoclaved pellets and sterile water ad libitum. Following a week of acclimatization, approximately 5 × 10^6 CWR22Rv1 cells were inoculated one flank f mice. Tumor-bearing mice (tumor volume around ~100 mm^3) were randomized into 6 groups (5 mice in each group; compounds formulated in vehicle) and treated as follows: (i) vehicle control (40% β-cyclodextrin in saline, PO.), (ii) ENZ (25 mg/kg, PO, once daily), (iii) Gal (100mg/kg, PO, twice daily), (iv) VNPP414 (60 mg/kg, PO, once daily), (v) VNPP433-3β (15 mg/kg, PO, once daily), and (vi) VNPP433-3β (30 mg/kg, PO, once daily) for 5 days/week. Tumors were measured twice weekly with calipers and tumor volume was calculated by the formula: length × width^2 × 0.5 (mm^3). Animals were also weighed weekly and monitored for general health status and signs of possible toxicity due to treatments. Mice were sacrificed after the indicated periods of treatment and tumors excised. Tumors were divided and either flash frozen in liquid nitrogen or placed in 10% buffered formalin for western blot analysis.

SMILES: CNC(=O)c1ccc(N2C(=S)N(c3ccc(C#N)c(C(F)(F)F)c3)C(=O)C2(C)C)cc1F [Enzalutamide, reference compound]
- inhibition of colony formation [1]: ineffective at the concentrations tested
- tumor volume versus vehicle-treated control (in words) (CWR22Rv1 xenografts): ineffective; also recorded: no statistically significant difference
